Results from PMC8781960, “Structural Basis of 2-Phenylamino-4-phenoxyquinoline Derivatives as Potent HIV-1 Non-Nucleoside Reverse Transcriptase Inhibitors” (Molecules, 2022).
Marks after values point to notes of the source that are not given here.

Legend:
[1] = system: H69AR (lung cancer, multidrug resistant); experiment: In vitro cytotoxicity (MTT); format: cell-based, human; conditions: 48 h; for %C percentage cytotoxicity H69AR: human, 50 µg/mL
Description: Background control wells contained the same volume as the complete culture medium. […] The reagent was dissolved in phosphate-buffered saline at 5 mg/mL and filtered to sterilize and remove the small amount of insoluble residue present in some batches of MTT. […] Subsequently, dimethyl sulfoxide (100 µL; Merck, Germany) was added to dissolve the resulting formazan by sonication. The plates were read on a microplate reader (Molecular Devices, CA, USA) using a test wavelength of 550 nm and a reference wavelength of 650 nm.

HepG2 (hepatocarcinoma) = experiment: In vitro cytotoxicity (MTT); conditions: for IC50: Homo sapiens, HepG2, 48 h, read-out: IC50 HepG2
Description: (§1) Background control wells contained the same volume as the complete culture medium. […] Samples at various concentrations were added to the microplate and incubated for another 48 h. Cell viability was determined by 3(4,5-dimethylthiazol-2-yl)-2-5-diphenyl tetrazolium bromide (MTT) assay (Sig-ma-Aldrich). The reagent was dissolved in phosphate-buffered saline at 5 mg/mL and filtered to sterilize and remove the small amount of insoluble residue present in some batches of MTT. […] Subsequently, dimethyl sulfoxide (100 µL; Merck, Germany) was added to dissolve the resulting formazan by sonication. The plates were read on a microplate reader (Molecular Devices, CA, USA) using a test wavelength of 550 nm and a reference wavelength of 650 nm. XTT assay for suspension cells was used for MOLT-3 cells.

[2] = system: MDA-MB-231 (hormone-independent breast cancer); experiment: In vitro cytotoxicity (MTT); conditions: for IC50: Homo sapiens, MDA-MB-231, 48 h, read-out: IC50 MDA-MB-231; for %C percentage cytotoxicity MDA-MB-231: at 50 µg/mL, inactive (IC50 ≥ 50 µg/mL)
Description: as §1

[3] = system: HuCCA-1 (cholangiocarcinoma); experiment: In vitro cytotoxicity (MTT); conditions: for %C percentage cytotoxicity HuCCA-1: at 50 µg/mL, inactive (IC50 ≥ 50 µg/mL); for IC50: Homo sapiens, HuCC-A1, 48 h, read-out: IC50 HuCCA-1
Description: as §1

[4] = system: T47-D (hormone-dependent breast cancer); experiment: In vitro cytotoxicity (MTT); conditions: for %C percentage cytotoxicity T47-D: at 50 µg/mL, inactive (IC50 ≥ 50 µg/mL); for IC50: Homo sapiens, T47D, 48 h, read-out: IC50 T47-D
Description: as §1

A549 (lung carcinoma) = experiment: In vitro cytotoxicity (MTT); conditions: for %C percentage cytotoxicity A549: at 50 µg/mL, inactive (IC50 ≥ 50 µg/mL); for IC50: Homo sapiens, A549, 48 h, read-out: IC50 A549
Description: as §1

S102 (Thai liver cancer) = experiment: In vitro cytotoxicity (MTT); conditions: for %C percentage cytotoxicity S102: at 50 µg/mL, inactive (IC50 ≥ 50 µg/mL); for IC50: Homo sapiens, 48 h, read-out: IC50 S102
Description: as §1

[5] = system: HeLA (cervical carcinoma); experiment: In vitro cytotoxicity (MTT); conditions: for IC50: Homo sapiens, HeLa, 48 h, read-out: IC50 HeLA; for %C percentage cytotoxicity HeLA: at 50 µg/mL, inactive (IC50 ≥ 50 µg/mL)
Description: as §1

HL-60 (promyeloblast) = experiment: In vitro cytotoxicity (MTT); conditions: for IC50: Homo sapiens, HL-60, 48 h, read-out: IC50 HL-60; for %C percentage cytotoxicity HL-60: at 50 µg/mL, inactive (IC50 ≥ 50 µg/mL)
Description: as §1

[6] = system: MRC-5 (normal embryonic lung cell); experiment: In vitro cytotoxicity (MTT), normal cell line; conditions: for %C percentage cytotoxicity MRC-5: normal cell line, at 50 µg/mL, inactive (IC50 ≥ 50 µg/mL); for IC50: Homo sapiens, MRC5, 48 h, read-out: IC50 MRC-5
Description: as §1

HIV-1 RT = target: T1, HIV-1 RT (Human immunodeficiency virus type 1 group M subtype B, UniProt P03366); experiment: HIV-1 RT inhibition assay (Roche RT kit, colorimetric ELISA); format: biochemical; conditions: for inhibition at 1 µM: read-out: Inhibitory activities (%) against HIV-1 RT
T1 construct: The reaction mixture consisted of template/primer complex, 2′-deoxy-nucleotide-5′-triphosphates (dNTPs), and RT enzyme in lysis buffer; purchased Roche Applied Science, Mannheim, Germany
Excerpt: The inhibition assay of HIV-1 RT was accomplished using the template/primer hybrid poly(A) × oligo(dT)15, digoxigenin (DIG)- and biotin-labeled nucleotides, an antibody to DIG that was conjugated to peroxidase (anti-DIG-POD), and the peroxidase substrate ABTS. The quantities of DIG- and biotin-labeled dUTP incorporated into DNA represent t HIV-1 RT activity. The HIV-RT inhibition assay was implemented using an RT assay kit (Roche Applied Science, Mannheim, Germany), and the procedures for assaying RT inhibition were performed as described in the kit protocol. […] The reaction mixture consisted of template/primer complex, 2′-deoxy-nucleotide-5′-triphosphates (dNTPs), and RT enzyme in lysis buffer with or without an inhibitor. […] The biotin-labeled dNTPs that were incorporated in the template bound to streptavidin because of the presence of RT. Unbound dNTPs were washed using a wash buffer, and anti-DIG-POD was added to the MTP. The DIG-labeled dNTPs incorporated in the template bound to the anti-DIG-POD antibody. Unbound anti-DIG-POD was also washed elaborately five times using a wash buffer. Finally, the peroxide substrate (ABST) was added to the MTP. A colored reaction product emerged during the cleavage of the substrate catalyzed by […]. The absorbance of the sample was measured at the optical density (OD) at 490 nm using the MTP (enzyme-linked immunosorbent assay [ELISA]) reader. The percentage inhibitory activities of the RT inhibitors were calculated by comparing with that of the sample without an inhibitor. The resulting color intensity was directly proportional to the RT activity. Percentage inhibitory values were calculated using the following formula: Inhibition (%) = [1–(OD value with RT and inhibitor−OD value without RT and inhibitors)/(OD value without inhibitors with RT−OD value without RT and inhibitors)] × 100.

[7] = system: MOLT-3 (acute lymphoblastic leukemia); experiment: In vitro cytotoxicity (XTT); conditions: for IC50: Homo sapiens, MOLT-3, 48 h, read-out: IC50 MOLT-3; for %C percentage cytotoxicity MOLT-3: at 50 µg/mL, inactive (IC50 ≥ 50 µg/mL)
Description: as §1

SMILES	%C percentage cytotoxicity H69AR [1]	melting point	IC50 (HepG2 (hepatocarcinoma))	IC50 [2]	%C percentage cytotoxicity T47-D [4]	%C percentage cytotoxicity A549 (A549 (lung carcinoma))	%C percentage cytotoxicity S102 (S102 (Thai liver cancer))	IC50 [5]	IC50 (HL-60 (promyeloblast))	%C percentage cytotoxicity MRC-5 [6]	inhibition at 1 µM (HIV-1 RT)	IC50 [7]	IC50 [3]	IC50 (A549 (lung carcinoma))	IC50 [6]	IC50 [4]	%C percentage cytotoxicity HL-60 (HL-60 (promyeloblast))	further results
Cc1cc(C=O)cc(C)c1Oc1cc(Nc2ccc(C#N)cc2)c2ccccc2n1 [Compound 8b, 2-(2′,6′-Dimethyl-4′-formylphenoxy)-4-(4″-cyanophenyl)-aminoquinoline]	%C = 6.0 ^c	200 to 201.3 °C	106 ± 9.7 µM	107 ± 3.2 µM	%C = 38.0 ^c	%C = 37.0 ^c	%C = 0.0 ^c	42.3 ± 2.7 µM	34.9 ± 5.1 µM	%C = 9.7 ^c	39.6 ± 1.5%	22.3 ± 1.9 µM						%C percentage cytotoxicity HuCCA-1 [3]: %C = 43.0 ^c
Cc1cc(C=O)cc(C)c1Oc1cc(Nc2ccc(C#N)cn2)nc2ccccc12 [Compound 6b, 4-(2’,6’-Dimethyl-4’-formylphenoxy)-2-(5″-cyanopyridin-2″ylamino)quinoline]	%C = 21.0 ^c	275.7 to 276.5 °C	92.8 ± 11.8 µM	103 ± 1.9 µM	%C = 38.0 ^c			25.7 ± 0.8 µM	20.5 ± 2.1 µM	%C = 26.1 ^c	44.5 ± 2.8%	12.7 ± 1.1 µM	126 ± 1.8 µM	108 ± 1.2 µM				IC50 (S102 (Thai liver cancer)): 112 ± 1.8 µM; cytotoxicity toward normal embryonic lung (MRC-5) cells, in words [6]: very low cytotoxicity; IC50 (HIV-1 RT): 1.93 µM
O=Cc1ccc(Oc2cc(Oc3ccc(C=O)cc3)c3ccccc3n2)cc1 [Compound 4a, 2,4-di-(4′-formylphenoxy)-quinoline]	%C = 0.0 ^c	164.9 to 165.5 °C	90.9 ± 2.1 µM		%C = 34.0 ^c	%C = 40.0 ^c	%C = 0.4 ^c	104 ± 7.9 µM	92.4 ± 3.1 µM		17.3 ± 2.4%	25.1 ± 2.6 µM	48.1 ± 1.7 µM		84.3 ± 9.6 µM			%C percentage cytotoxicity MDA-MB-231 [2]: %C = 43.3 ^c
Cc1cc(C#N)cc(C)c1Oc1cc(Oc2c(C)cc(C#N)cc2C)c2ccccc2n1 [Compound 4d, 2,4-di-(2′,6′-Dimethyl-4′-cyanophenoxy)-quinoline]	%C = 38.0 ^c	201.8 to 202.4 °C	92.2 ± 6.8 µM	92.5 ± 5 µM			%C = 31.5 ^c			%C = 26.9 ^c	40.3 ± 3.3%		83.5 ± 11.1 µM	55.5 ± 5.7 µM		55.2 ± 1.5 µM	%C = 23.0 ^c	%C percentage cytotoxicity HeLA [5]: %C = 40.0 ^c; %C percentage cytotoxicity MOLT-3 [7]: %C = 13.0 ^c
O=Cc1ccc(Oc2cc(-c3cc(Oc4ccc(C=O)cc4)c4ccccc4n3)nc3ccccc23)cc1 [Compound 7a, 4,4′-di-(4′-formylphenoxy)-2,2′-biquinoline]	%C = 20.0 ^c	288.7 to 289.3 °C	69.8 ± 11.8 µM	74.1 ± 5.3 µM			%C = 17.6 ^c	88 ± 4.3 µM		%C = 33.9 ^c	22.9 ± 1.2%	74.2 ± 6.3 µM	88.2 ± 4.4 µM	69.5 ± 3.3 µM		96.1 ± 3.3 µM	%C = 25.0 ^c	
Cc1cc(C=O)cc(C)c1Oc1cc(Oc2c(C)cc(C=O)cc2C)c2ccccc2n1 [Compound 4b, 2,4-di-(2′,6′-Dimethyl-4′-formylphenoxy)-quinoline]		120.5 to 121 °C	50.6 ± 1.2 µM	15.3 ± 1.6 µM				5.3 ± 0.2 µM	5.7 ± 2 µM		42.1 ± 2.5%	61.6 ± 0.7 µM	11.1 ± 0.7 µM	38.5 ± 1.3 µM	60.4 ± 2 µM	22.5 ± 3.3 µM		IC50 ([1]; Homo sapiens, H69AR, mean ± standard error): 30.9 ± 5.7 µM; IC50 (S102 (Thai liver cancer)): 89.4 ± 0.1 µM
N#Cc1ccc(Nc2cc(Oc3ccc(C=O)cc3)nc3ccccc23)cc1 [Compound 8a, 2-(4′-formylphenoxy)-4-(4″-cyanophenyl)-aminoquinoline]	%C = 8.4 ^c	238.5 to 238.9 °C	85.3 ± 3.5 µM	118 ± 5.8 µM	%C = 0.0 ^c		%C = 2.9 ^c	112 ± 3.1 µM	107 ± 1.4 µM		29.6 ± 2.7%	21.5 ± 3.3 µM	22.7 ± 1.9 µM	111 ± 5.6 µM	119 ± 5.7 µM			
Cc1cc(C#N)cc(C)c1Oc1cc(Nc2ccc(C#N)cn2)nc2ccccc12 [Compound 6d, 4-(2′,6′-Dimethyl-4′-cyanophenoxy)-2-(5’’-cyanopyridin-2’’ylamino)quinoline]	%C = 0.0 ^c	229.4 to 230.3 °C			%C = 1.0 ^c	%C = 8.0 ^c	%C = 0.0 ^c			%C = 0.0 ^c	45.1 ± 1.5%						%C = 13.0 ^c	%C percentage cytotoxicity HepG2 (HepG2 (hepatocarcinoma); at 50 µg/mL, inactive (IC50 ≥ 50 µg/mL)): %C = 0.0 ^c; %C percentage cytotoxicity MDA-MB-231 [2]: %C = 8.3 ^c; %C percentage cytotoxicity HuCCA-1 [3]: %C = 0.0 ^c; %C percentage cytotoxicity HeLA [5]: %C = 0.0 ^c; cytotoxicity toward normal embryonic lung (MRC-5) cells, in words [6]: no cytotoxicity; IC50 (HIV-1 RT): 1.22 µM; %C percentage cytotoxicity MOLT-3 [7]: %C = 27.0 ^c
